In this experiment the target is PARP7 (Homo sapiens (Human), UniProt Q7Z3E1). The experiment is described as follows: TR-FRET assay: displacement of biotinylated Probe A from the TIPARP active site (Enzymatic Assay for Inhibition of PARP7). The experiment is classed as binding. As to conditions: TIPARP 6 nM, Probe A 2 nM, 25° C. The procedure: Example A. Enzymatic Assay for Inhibition of PARP7
Sequence of PARP7 (Q7Z3E1 whole entry): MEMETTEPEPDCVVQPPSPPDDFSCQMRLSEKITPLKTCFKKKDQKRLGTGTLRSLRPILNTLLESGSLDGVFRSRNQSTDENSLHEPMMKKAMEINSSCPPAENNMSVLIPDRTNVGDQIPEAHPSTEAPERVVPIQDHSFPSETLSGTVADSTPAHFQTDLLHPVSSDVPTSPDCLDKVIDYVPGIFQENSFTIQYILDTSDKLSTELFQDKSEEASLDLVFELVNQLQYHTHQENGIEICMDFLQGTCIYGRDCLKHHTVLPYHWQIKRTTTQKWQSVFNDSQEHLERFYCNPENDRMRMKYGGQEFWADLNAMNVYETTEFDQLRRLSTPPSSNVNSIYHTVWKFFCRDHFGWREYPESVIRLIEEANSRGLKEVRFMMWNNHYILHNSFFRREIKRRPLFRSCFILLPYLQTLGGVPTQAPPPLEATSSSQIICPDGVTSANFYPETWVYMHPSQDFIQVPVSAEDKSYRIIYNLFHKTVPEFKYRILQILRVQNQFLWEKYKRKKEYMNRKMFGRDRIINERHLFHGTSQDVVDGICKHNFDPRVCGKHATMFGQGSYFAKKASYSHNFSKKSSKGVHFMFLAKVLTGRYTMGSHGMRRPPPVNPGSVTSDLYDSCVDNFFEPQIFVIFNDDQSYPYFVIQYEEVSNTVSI
Displacement of Probe A, a biotinylated probe binding to the TIPARP active site, was measured using a time-resolved fluorescence energy transfer (TR-FRET) assay. 20 nL of a dose response curve of each test compound was spotted in black 384-well polystyrene proxiplates (Perkin Elmer) using a Mosquito (TTP Labtech). Reactions were performed in a 8 μl volume by adding 6 μL of TIPARP and Probe A in assay buffer (20 mM HEPES pH=8, 100 mM NaCl, 0.1% bovine serum albumin, 2 mM DTT and 0.002% Tween20), incubating with test compound at 25° C. for 30 min, then adding 2 μL of ULight-anti 6×His and LANCE Eu-W1024 labeled streptavidin (Perkin Elmer). The final concentrations of TIPARP and Probe A were 6 nM and 2 nM, respectively. The final concentration of ULight-anti 6×His and LANCE Eu-W1024 labeled streptavidin were 4 nM and 0.25 nM, respectively. Reactions were incubated at 25° C. for an additional 30 min, then read on an Envision platereader equipped with a LANCE/DELFIA top mirror (Perkin Elmer) using excitation of 320 nm and emission of 615 nm and […] with a […]. The ratio of the 665/615 nm emission were calculated for each well to determine the amount of complex of TIPARP and Probe Ain each well. Control wells containing a negative control of 0.25% DMSO vehicle or a positive control of 100 μM 5-(5-(piperidin-4-yloxy)isoindolin-2-yl)-4-(trifluoromethyl)pyridazin-3(2H)-one were used to calculate the % inhibition as described below:
[formula] where TRFcmpd is the TR-FRET ratio from the compound treated well, TRFmin is the TR-FRET ratio from the 5-(5-(piperidin-4-yloxy)isoindolin-2-yl)-4-(trifluoromethyl)pyridazin-3(2H)-one—treated positive control well and TRFmax is the TR-FRET ratio from the DMSO-treated negative control well. The % inhibition values were plotted as a function of compound concentration and the following 4-parameter fit was applied to derive the IC50 values:
[formula] where top and bottom are normally allowed to float, but may be fixed at 100 or 0 respectively in a 3-parameter fit. The Hill Coefficient is normally allowed to float but may also be fixed at 1 in a 3-parameter fit. Y is the % inhibition and X is the compound concentration. Synthesis of Probe A
(In general: In TR-FRET formats the signal depends on donor and acceptor labels being close together.)
A word on the IC50: it is the point on the concentration scale where inhibition reaches its midpoint. On to `C[C@@H](COC1CCN([C@@H]2CCN(c3ncc(C(F)(F)F)cn3)C[C@H]2O)C1=O)Oc1cn[nH]c(=O)c1C(F)(F)F` (stereo partly drawn) [Example 65, 5-(((2S)-1-((1-((3R,4R)-3-hydroxy-1-(5-(trifluoromethyl)pyrimidin-2-yl)piperidin-4-yl)-2-oxopyrrolidin-3-yl)oxy)propan-2-yl)oxy)-4-(trifluoromethyl)pyridazin-3(2H)-one], for which the concentration for half-maximal inhibition (IC50) was < 100 nM.
Turning to `C[C@@H](CO[C@@H]1CCN(C2CCN(c3ccc(C#N)cn3)CC2)C1=O)Nc1cn[nH]c(=O)c1C(F)(F)F` [Example 14B, 6-(4-((R)-2-oxo-3-((S)-2-((6-oxo-5-(trifluoromethyl)-1,6-dihydropyridazin-4-yl)amino)propoxy)pyrrolidin-1-yl)piperidin-1-yl)nicotinonitrile], the concentration for half-maximal inhibition (IC50) is < 100 nM.
As to `O=C1[C@H](OC[C@H](CNCC(F)(F)F)Nc2cn[nH]c(=O)c2C(F)(F)F)CCN1C1CCN(c2ncc(C(F)(F)F)cn2)CC1` [Example 62, 5-(((S)-1-(((R)-2-oxo-1-(1-(5-(trifluoromethyl)pyrimidin-2-yl)piperidin-4-yl)pyrrolidin-3-yl)oxy)-3-((2,2,2-trifluoroethyl)amino)propan-2-yl)amino)-4-(trifluoromethyl)pyridazin-3(2H)-one], the IC50 is < 100 nM.
Then `CC(=O)NC[C@@H](CO[C@@H]1CCN(C2CCN(c3ncc(C(F)(F)F)cn3)CC2)C1=O)Nc1cn[nH]c(=O)c1C(F)(F)F` [Example 66, N—((S)-3-(((R)-2-oxo-1-(1-(5-(trifluoromethyl)pyrimidin-2-yl)piperidin-4-yl)pyrrolidin-3-yl)oxy)-2-((6-oxo-5-(trifluoromethyl)-1,6-dihydropyridazin-4-yl)amino)propyl)acetamide], with < 100 nM.
In the case of `COC[C@@H](CO[C@@H]1CCN(C2CCN(c3ncc(C)cn3)CC2)C1=O)Nc1cn[nH]c(=O)c1C(F)(F)F` [Example 53, 5-(((S)-1-methoxy-3-(((R)-1-(1-(5-methylpyrimidin-2-yl)piperidin-4-yl)-2-oxopyrrolidin-3-yl)oxy)propan-2-yl)amino)-4-(trifluoromethyl)pyridazin-3(2H)-one], the IC50 is < 100 nM.
For the molecule `C[C@@H](CO[C@@H]1CCN(C2CCN(c3cnc(C(F)F)cn3)CC2)C1=O)Nc1cn[nH]c(=O)c1C(F)(F)F` [Example 22B, 5-(((S)-1-(((R)-1-(1-(5-(difluoromethyl)pyrazin-2-yl)piperidin-4-yl)-2-oxopyrrolidin-3-yl)oxy)propan-2-yl)amino)-4-(trifluoromethyl)pyridazin-3(2H)-one], the half-inhibitory concentration (IC50) is < 100 nM.
As for `C[C@@H](CO[C@@H]1CCN([C@H]2CCN(c3ncc(C(F)(F)F)cn3)C[C@H]2F)C1=O)Nc1cn[nH]c(=O)c1C(F)(F)F` (single isomer, unassigned) [Example 39B], the IC50 was < 100 nM.
As to `C[C@@H](CO[C@@H]1CCCN(C2CCN(c3ncc(C(F)(F)F)cn3)CC2)C1=O)Nc1cn[nH]c(=O)c1C(F)(F)F` [Example 34B, (R)-3-((S)-2-((6-oxo-5-(trifluoromethyl)-1,6-dihydropyridazin-4-yl)amino)propoxy)-1′-(5-(trifluoromethyl)pyrimidin-2-yl)-[1,4′-bipiperidin]-2-one], the IC50 was < 100 nM.
Turning to `C[C@@H](COCC(=O)N[C@@H]1CCN(c2ncc(C(F)(F)F)cn2)C[C@H]1O)Nc1cn[nH]c(=O)c1C(F)(F)F` (single isomer, unassigned) [Example 33A], the 50% inhibitory concentration (IC50) was < 100 nM.
Then `COC[C@@H](CO[C@@H]1CCN(C2CCN(c3ncc(C(F)(F)F)cn3)CC2)C1=O)Oc1cn[nH]c(=O)c1Br` [Example 56B, 4-Bromo-5-(((S)-1-methoxy-3-(((R)-2-oxo-1-(1-(5-(trifluoromethyl)pyrimidin-2-yl)piperidin-4-yl)pyrrolidin-3-yl)oxy)propan-2-yl)oxy)pyridazin-3(2H)-one], with < 100 nM; and `O=C1[C@H](OC[C@H](CO)Nc2cn[nH]c(=O)c2C(F)(F)F)CCN1C1CCN(c2ncc(C(F)(F)F)cn2)CC1` [Example 63, 5-(((S)-1-hydroxy-3-(((R)-2-oxo-1-(1-(5-(trifluoromethyl)pyrimidin-2-yl)piperidin-4-yl)pyrrolidin-3-yl)oxy)propan-2-yl)amino)-4-(trifluoromethyl)pyridazin-3(2H)-one], with < 100 nM; and `C[C@@H](COC1CCN(C2CCN(c3ncc(C(F)(F)F)cn3)CC2)C1=O)Nc1cn[nH]c(=O)c1Cl` (stereo partly drawn) [Example 11, 4-chloro-5-((S)-1-(2-oxo-1-(1-(5-(trifluoromethyl)pyrimidin-2-yl)piperidin-4-yl)pyrrolidin-3-yloxy)propan-2-ylamino)pyridazin-3(2H)-one], with < 100 nM.
`C[C@@H](COC1CCN(C2CCN(c3ncc(C(F)(F)F)cn3)CC2)C1)Nc1cn[nH]c(=O)c1C(F)(F)F` (stereo partly drawn) [Example 21, 4-(trifluoromethyl)-5-(((2S)-1-((1-(1-(5-(trifluoromethyl)pyrimidin-2-yl)piperidin-4-yl)pyrrolidin-3-yl)oxy)propan-2-yl)amino)pyridazin-3(2H)-one] registered an IC50 of 100 to 1000 nM.
For the molecule `C[C@@H](CO[C@@H]1CCN([C@H]2CCN(c3ncc(C(F)(F)F)cn3)C[C@@H]2F)C1=O)Nc1cn[nH]c(=O)c1C(F)(F)F` (single isomer, unassigned) [Example 38B], the IC50 was < 100 nM.
Take `COC[C@@H](CO[C@@H]1CCN(C2CCN(c3ncc(C(F)(F)F)cn3)CC2)C1=O)Nc1cn[nH]c(=O)c1C(F)(F)F` [Example 19B, 5-(((S)-1-methoxy-3-(((R)-2-oxo-1-(1-(5-(trifluoromethyl)pyrimidin-2-yl)piperidin-4-yl)pyrrolidin-3-yl)oxy)propan-2-yl)amino)-4-(trifluoromethyl)pyridazin-3(2H)-one]: the IC50 was < 100 nM.
As for `C[C@@H](CO[C@@H]1CCN(C2CCN(c3ncc(C(F)(F)F)cn3)CC2)C1=O)Oc1cn[nH]c(=O)c1Cl` [Example 47B, 4-chloro-5-(((S)-1-(((R)-2-oxo-1-(1-(5-(trifluoromethyl)pyrimidin-2-yl)piperidin-4-yl)pyrrolidin-3-yl)oxy)propan-2-yl)oxy)pyridazin-3(2H)-one], the IC50 was < 100 nM.
As for `N#Cc1ccc(N2CCC(N3CC[C@@H](OCCNc4cn[nH]c(=O)c4C(F)(F)F)C3=O)CC2)nc1` [Example 36A], the IC50 is < 100 nM.
With `C[C@@H](CN[C@@H]1CCN(C2CCN(c3ncc(C(F)(F)F)cn3)CC2)C1=O)Nc1cn[nH]c(=O)c1C(F)(F)F` [Example 26B, 5-(((S)-1-(((R)-2-oxo-1-(1-(5-(trifluoromethyl)pyrimidin-2-yl)piperidin-4-yl)pyrrolidin-3-yl)amino)propan-2-yl)amino)-4-(trifluoromethyl)pyridazin-3(2H)-one], the half-maximal inhibitory concentration (IC50) is < 100 nM.
Then `C[C@@H](CO[C@H]1CCN(C2CCN(c3ccc(C#N)cn3)CC2)C1=O)Oc1cn[nH]c(=O)c1Br` [Example 48B], with < 100 nM; and `C[C@@H](CO[C@H]1CCN(C2CCN(c3cnc(C(F)(F)F)cn3)CC2)C1=O)Oc1cn[nH]c(=O)c1C(F)(F)F` [Example 31A, 5-(((S)-1-(((S)-2-oxo-1-(1-(5-(trifluoromethyl)pyrazin-2-yl)piperidin-4-yl)pyrrolidin-3-yl)oxy)propan-2-yl)oxy)-4-(trifluoromethyl)pyridazin-3(2H)-one], with < 100 nM; and `C[C@H](CN[C@H]1CCN(C2CCN(c3ncc(C(F)(F)F)cn3)CC2)C1=O)Nc1cn[nH]c(=O)c1C(F)(F)F` (single isomer, unassigned) [Example 26C], with ≥ 1000 nM.
As to `C[C@@H](CN[C@H]1CCN(C2CCN(c3ncc(C(F)(F)F)cn3)CC2)C1=O)Nc1cn[nH]c(=O)c1C(F)(F)F` (single isomer, unassigned) [Example 26A], the IC50 was ≥ 1000 nM.
Regarding `C[C@@H](CO[C@H]1CCN(C2CCN(c3ncc(C(F)(F)F)cn3)CC2)C1=O)Oc1cn[nH]c(=O)c1Cl` [Example 47A, 4-chloro-5-(((S)-1-(((S)-2-oxo-1-(1-(5-(trifluoromethyl)pyrimidin-2-yl)piperidin-4-yl)pyrrolidin-3-yl)oxy)propan-2-yl)oxy)pyridazin-3(2H)-one], the IC50 was in the range of 100 to 1000 nM.
Then `C[C@@H](CO[C@@H]1CCN(C2CCN(c3ncc(C(F)(F)F)cn3)CC2C#N)C1=O)Nc1cn[nH]c(=O)c1C(F)(F)F` (stereo partly drawn) [Example 69, 4-((R)-2-oxo-3-((S)-2-((6-oxo-5-(trifluoromethyl)-1,6-dihydropyridazin-4-yl)amino)propoxy)pyrrolidin-1-yl)-1-(5-(trifluoromethyl)pyrimidin-2-yl)piperidine-3-carbonitrile], with < 100 nM; and `C[C@@H](CO[C@@H]1CCN([C@@H]2CCN(c3ncc(C(F)(F)F)cn3)C[C@H]2F)C1=O)Nc1cn[nH]c(=O)c1C(F)(F)F` (single isomer, unassigned) [Example 38A], with < 100 nM.

The values above are taken from patent US11691969B2, “Pyridazinones as PARP7 inhibtors” (Ribon Therapeutics, Inc., priority 2019, dated 2023).
